# Results published in ChEMBL document CHEMBL4507274 (2021).
# Key:
# [1] = biological target: Ephrin type-A receptor 8 (Homo sapiens) (UniProt P29322); details: Compound concentration 100.0 nM
# [2] = biological target: Microtubule-associated serine/threonine-protein kinase 1 (Homo sapiens) (UniProt Q9Y2H9); details: Compound concentration 100.0 nM
# [3] = biological target: T1, Serine/threonine-protein kinase Sgk1 (Homo sapiens) (UniProt O00141); details: Compound concentration 100.0 nM
# T1 sequence (whole entry): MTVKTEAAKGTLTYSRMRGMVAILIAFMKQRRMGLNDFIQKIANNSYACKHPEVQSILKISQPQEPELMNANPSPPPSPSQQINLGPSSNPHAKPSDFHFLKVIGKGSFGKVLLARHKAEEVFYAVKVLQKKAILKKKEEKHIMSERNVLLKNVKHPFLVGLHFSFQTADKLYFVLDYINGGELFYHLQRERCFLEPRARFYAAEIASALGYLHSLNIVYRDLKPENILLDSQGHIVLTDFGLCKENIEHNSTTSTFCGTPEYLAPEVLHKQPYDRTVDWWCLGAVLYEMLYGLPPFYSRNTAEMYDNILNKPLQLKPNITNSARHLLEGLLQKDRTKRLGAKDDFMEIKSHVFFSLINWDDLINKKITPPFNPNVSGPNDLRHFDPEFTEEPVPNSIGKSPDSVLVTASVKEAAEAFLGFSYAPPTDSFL
# [4] = test system: Receptor-type tyrosine-protein kinase FLT3 (Homo sapiens), P36888 [UNDEFINED MUTATION]; details: Compound concentration 100.0 nM
# [5] = biological target: Cyclin-dependent kinase 11A (Homo sapiens) (UniProt Q9UQ88); details: Compound concentration 100.0 nM
# [6] = biological target: Leucine-rich repeat serine/threonine-protein kinase 2 (Homo sapiens) (UniProt Q5S007); details: Compound concentration 100.0 nM
# [7] = biological target: LIM domain kinase 2 (Homo sapiens) (UniProt P53671); details: Compound concentration 100.0 nM
# LIM domain kinase 2 (Homo sapiens), sequence (P53671 whole entry, looked up, the tested form may be a part): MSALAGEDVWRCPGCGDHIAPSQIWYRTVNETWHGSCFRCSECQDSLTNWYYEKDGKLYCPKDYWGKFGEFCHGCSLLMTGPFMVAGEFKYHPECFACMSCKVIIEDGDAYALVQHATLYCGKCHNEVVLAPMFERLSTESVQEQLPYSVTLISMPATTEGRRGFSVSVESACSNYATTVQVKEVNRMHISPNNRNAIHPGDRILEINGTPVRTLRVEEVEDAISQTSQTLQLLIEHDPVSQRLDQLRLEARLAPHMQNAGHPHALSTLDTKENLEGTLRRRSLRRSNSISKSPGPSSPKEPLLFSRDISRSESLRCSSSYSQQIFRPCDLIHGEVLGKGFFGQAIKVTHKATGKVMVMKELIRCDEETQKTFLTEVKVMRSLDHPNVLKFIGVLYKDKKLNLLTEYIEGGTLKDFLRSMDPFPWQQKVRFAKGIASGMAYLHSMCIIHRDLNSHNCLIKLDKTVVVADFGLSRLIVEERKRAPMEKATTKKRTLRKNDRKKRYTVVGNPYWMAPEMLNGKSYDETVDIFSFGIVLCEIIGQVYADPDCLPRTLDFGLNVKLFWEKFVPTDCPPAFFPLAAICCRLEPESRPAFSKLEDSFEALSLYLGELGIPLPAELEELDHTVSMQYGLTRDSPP
# [8] = biological target: Phosphatidylinositol 5-phosphate 4-kinase type-2 gamma (Homo sapiens) (UniProt Q8TBX8); details: Compound concentration 100.0 nM
# Phosphatidylinositol 5-phosphate 4-kinase type-2 gamma (Homo sapiens), sequence (Q8TBX8 whole entry, canonical isoform): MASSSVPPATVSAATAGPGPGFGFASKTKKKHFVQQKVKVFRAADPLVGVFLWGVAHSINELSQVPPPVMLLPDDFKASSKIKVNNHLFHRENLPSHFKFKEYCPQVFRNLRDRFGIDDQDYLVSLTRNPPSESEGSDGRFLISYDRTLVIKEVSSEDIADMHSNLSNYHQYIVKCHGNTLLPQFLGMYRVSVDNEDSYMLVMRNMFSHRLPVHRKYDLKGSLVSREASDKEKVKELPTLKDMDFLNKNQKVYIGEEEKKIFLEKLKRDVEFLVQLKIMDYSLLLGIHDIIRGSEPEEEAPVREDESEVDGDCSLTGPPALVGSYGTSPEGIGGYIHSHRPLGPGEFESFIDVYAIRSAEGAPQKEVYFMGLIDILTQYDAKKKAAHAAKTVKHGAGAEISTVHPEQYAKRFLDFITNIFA
# [9] = test system: Phosphatidylinositol 4,5-bisphosphate 3-kinase catalytic subunit alpha isoform (Homo sapiens), P42336 [E542K]; details: Compound concentration 100.0 nM
# [10] = biological target: Fibroblast growth factor receptor 1 (Homo sapiens) (UniProt P11362); details: Compound concentration 100.0 nM
# [11] = biological target: 5-hydroxytryptamine receptor 2B (Homo sapiens) (UniProt P41595); details: Compound concentration 10.0 uM
# 5-hydroxytryptamine receptor 2B (Homo sapiens), sequence (P41595 whole entry, canonical isoform): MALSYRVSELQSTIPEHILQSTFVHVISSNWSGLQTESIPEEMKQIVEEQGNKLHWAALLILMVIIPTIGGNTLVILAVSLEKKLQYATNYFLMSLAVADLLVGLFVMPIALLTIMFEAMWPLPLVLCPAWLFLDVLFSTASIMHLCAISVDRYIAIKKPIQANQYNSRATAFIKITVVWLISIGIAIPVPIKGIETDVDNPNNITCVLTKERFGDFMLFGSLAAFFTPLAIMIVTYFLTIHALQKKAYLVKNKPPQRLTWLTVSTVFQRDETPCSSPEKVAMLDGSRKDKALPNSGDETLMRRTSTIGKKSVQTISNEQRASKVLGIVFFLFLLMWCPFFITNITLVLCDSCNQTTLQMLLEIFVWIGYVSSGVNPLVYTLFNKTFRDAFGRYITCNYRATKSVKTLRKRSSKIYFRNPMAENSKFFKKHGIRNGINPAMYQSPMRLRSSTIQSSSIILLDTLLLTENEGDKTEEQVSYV
# [12] = biological target: Casein kinase I isoform delta (Homo sapiens) (UniProt P48730); details: Compound concentration 100.0 nM
# [13] = biological target: Serine/threonine-protein kinase RIO1 (Homo sapiens) (UniProt Q9BRS2); details: Compound concentration 100.0 nM
# [14] = biological target: Tyrosine-protein kinase Lyn (Homo sapiens) (UniProt P07948); details: Compound concentration 100.0 nM
# [15] = biological target: Serine/threonine-protein kinase DCLK2 (Homo sapiens) (UniProt Q8N568); details: Compound concentration 100.0 nM
# [16] = biological target: Kappa-type opioid receptor (Homo sapiens, UniProt P41145); details: Compound concentration 10.0 uM
# [17] = biological target: 5-hydroxytryptamine receptor 7 (Homo sapiens) (UniProt P34969); details: Compound concentration 10.0 uM
# [18] = biological target: Beta-adrenergic receptor kinase 1 (Homo sapiens) (UniProt P25098); details: Compound concentration 100.0 nM
# [19] = biological target: Homeodomain-interacting protein kinase 2 (Homo sapiens) (UniProt Q9H2X6); details: Compound concentration 100.0 nM
# [20] = biological target: Transient receptor potential cation channel subfamily M member 6 (Homo sapiens) (UniProt Q9BX84); details: Compound concentration 100.0 nM
# [21] = biological target: Epithelial discoidin domain-containing receptor 1 (Homo sapiens) (UniProt Q08345); details: Compound concentration 100.0 nM
# [22] = biological target: Serine/threonine-protein kinase DCLK1 (Homo sapiens) (UniProt O15075); details: Compound concentration 100.0 nM
# [23] = biological target: Serine/threonine-protein kinase PLK4 (Homo sapiens) (UniProt O00444); details: Compound concentration 100.0 nM
# [24] = biological target: Calcium/calmodulin-dependent protein kinase type 1B (Homo sapiens) (UniProt Q6P2M8); details: Compound concentration 100.0 nM
# [25] = biological target: Calcium-dependent protein kinase 1 (Plasmodium falciparum) (UniProt P62344); details: Compound concentration 100.0 nM
# Calcium-dependent protein kinase 1 (Plasmodium falciparum), sequence (P62344 2-524 limits assumed): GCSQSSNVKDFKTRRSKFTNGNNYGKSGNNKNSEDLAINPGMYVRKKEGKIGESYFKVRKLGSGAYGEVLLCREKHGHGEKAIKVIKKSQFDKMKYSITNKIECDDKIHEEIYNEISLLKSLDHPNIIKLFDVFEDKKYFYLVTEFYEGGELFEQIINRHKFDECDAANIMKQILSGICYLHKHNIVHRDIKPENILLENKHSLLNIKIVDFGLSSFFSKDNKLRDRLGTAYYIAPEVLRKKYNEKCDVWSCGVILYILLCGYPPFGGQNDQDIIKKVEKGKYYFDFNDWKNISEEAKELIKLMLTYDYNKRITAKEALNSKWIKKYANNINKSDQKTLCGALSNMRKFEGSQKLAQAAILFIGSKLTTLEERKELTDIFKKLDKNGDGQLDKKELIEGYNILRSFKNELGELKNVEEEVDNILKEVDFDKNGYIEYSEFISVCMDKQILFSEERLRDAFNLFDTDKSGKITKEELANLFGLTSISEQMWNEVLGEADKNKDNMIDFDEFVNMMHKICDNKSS
# [26] = test system: Tyrosine-protein kinase ABL1 (Homo sapiens), P00519 [H396P]; details: Compound concentration 100.0 nM
# [27] = biological target: GABA-A receptor; anion channel (Rattus norvegicus) (UniProt O09028+P15431+P18506+P18508+P19969+P20236+P23574+P23576+P28471+P28473+P30191+P62813+P63079+P63138+Q91ZM7+Q9ES14); details: Compound concentration 10.0 uM
# [28] = biological target: Delta-type opioid receptor (Homo sapiens) (UniProt P41143); details: Compound concentration 10.0 uM
# Delta-type opioid receptor (Homo sapiens), sequence (P41143 whole entry): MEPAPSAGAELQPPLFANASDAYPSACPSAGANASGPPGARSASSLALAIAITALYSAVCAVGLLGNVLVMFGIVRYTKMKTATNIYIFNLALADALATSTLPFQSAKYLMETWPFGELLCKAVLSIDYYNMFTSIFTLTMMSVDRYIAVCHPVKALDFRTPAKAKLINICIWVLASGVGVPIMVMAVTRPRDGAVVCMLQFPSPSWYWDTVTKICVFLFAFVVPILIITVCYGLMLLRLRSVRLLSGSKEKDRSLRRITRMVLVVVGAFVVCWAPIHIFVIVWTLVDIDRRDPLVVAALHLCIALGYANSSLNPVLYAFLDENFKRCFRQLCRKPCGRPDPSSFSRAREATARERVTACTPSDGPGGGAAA
# [29] = biological target: Serine/threonine-protein kinase MRCK beta (Homo sapiens) (UniProt Q9Y5S2); details: Compound concentration 100.0 nM
# [30] = biological target: Serine/threonine-protein kinase Sgk2 (Homo sapiens) (UniProt Q9HBY8); details: Compound concentration 100.0 nM
# Serine/threonine-protein kinase Sgk2 (Homo sapiens), sequence (Q9HBY8 whole entry): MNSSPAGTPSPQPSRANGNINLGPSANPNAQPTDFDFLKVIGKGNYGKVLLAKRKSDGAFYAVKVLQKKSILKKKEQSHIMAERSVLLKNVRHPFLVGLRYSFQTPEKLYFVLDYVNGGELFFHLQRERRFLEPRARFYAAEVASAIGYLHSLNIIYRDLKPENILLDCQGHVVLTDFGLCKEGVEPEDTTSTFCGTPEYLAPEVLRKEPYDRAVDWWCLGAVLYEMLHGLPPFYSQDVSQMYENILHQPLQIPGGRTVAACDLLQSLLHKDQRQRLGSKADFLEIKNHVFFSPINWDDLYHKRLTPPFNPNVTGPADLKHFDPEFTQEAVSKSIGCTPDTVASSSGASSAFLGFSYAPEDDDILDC
# [31] = test system: Tyrosine-protein kinase ABL1 (Homo sapiens), P00519 [T315I]; details: Compound concentration 100.0 nM
# [32] = biological target: Cyclin-dependent kinase 14 (Homo sapiens) (UniProt O94921); details: Compound concentration 100.0 nM
# [33] = biological target: Hormonally up-regulated neu tumor-associated kinase (Homo sapiens) (UniProt P57058); details: Compound concentration 100.0 nM
# [34] = biological target: Serine/threonine-protein kinase PAK 2 (Homo sapiens) (UniProt Q13177); details: Compound concentration 100.0 nM
# [35] = biological target: Myosin-IIIa (Homo sapiens) (UniProt Q8NEV4); details: Compound concentration 100.0 nM
# [36] = biological target: Alpha-1A adrenergic receptor (Homo sapiens) (UniProt P35348); details: Compound concentration 10.0 uM
# [37] = biological target: Ephrin type-B receptor 3 (Homo sapiens) (UniProt P54753); details: Compound concentration 100.0 nM
# Ephrin type-B receptor 3 (Homo sapiens), sequence (P54753 whole entry): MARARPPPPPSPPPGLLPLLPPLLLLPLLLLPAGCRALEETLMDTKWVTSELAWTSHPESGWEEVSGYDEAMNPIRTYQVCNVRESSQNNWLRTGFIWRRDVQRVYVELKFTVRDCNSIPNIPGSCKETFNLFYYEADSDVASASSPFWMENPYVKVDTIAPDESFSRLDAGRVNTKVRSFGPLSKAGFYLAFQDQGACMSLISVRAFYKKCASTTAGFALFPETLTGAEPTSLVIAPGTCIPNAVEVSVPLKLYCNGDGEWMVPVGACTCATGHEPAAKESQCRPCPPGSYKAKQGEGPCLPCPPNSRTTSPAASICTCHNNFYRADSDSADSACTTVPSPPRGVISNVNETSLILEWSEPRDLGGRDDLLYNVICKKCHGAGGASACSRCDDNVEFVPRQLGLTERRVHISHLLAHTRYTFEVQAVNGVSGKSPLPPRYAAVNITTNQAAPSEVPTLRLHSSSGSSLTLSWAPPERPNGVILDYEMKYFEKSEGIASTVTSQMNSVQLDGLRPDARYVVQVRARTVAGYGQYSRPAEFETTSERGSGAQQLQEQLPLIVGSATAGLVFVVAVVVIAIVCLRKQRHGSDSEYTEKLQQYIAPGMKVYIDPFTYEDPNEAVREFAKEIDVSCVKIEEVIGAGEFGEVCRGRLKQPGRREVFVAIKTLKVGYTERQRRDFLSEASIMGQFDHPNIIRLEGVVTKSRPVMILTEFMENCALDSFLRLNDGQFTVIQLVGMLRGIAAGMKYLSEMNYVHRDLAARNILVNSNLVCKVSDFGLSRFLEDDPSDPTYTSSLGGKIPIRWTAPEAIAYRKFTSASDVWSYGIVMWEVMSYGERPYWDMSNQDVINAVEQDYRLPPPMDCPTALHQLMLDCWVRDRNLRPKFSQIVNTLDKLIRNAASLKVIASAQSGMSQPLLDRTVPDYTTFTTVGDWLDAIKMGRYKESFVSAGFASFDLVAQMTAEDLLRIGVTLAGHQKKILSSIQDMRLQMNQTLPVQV
# [38] = biological target: Cyclin-dependent kinase 4 (Homo sapiens) (UniProt P11802); details: Compound concentration 100.0 nM
# Ephrin type-A receptor 8 (Homo sapiens), sequence (P29322 whole entry): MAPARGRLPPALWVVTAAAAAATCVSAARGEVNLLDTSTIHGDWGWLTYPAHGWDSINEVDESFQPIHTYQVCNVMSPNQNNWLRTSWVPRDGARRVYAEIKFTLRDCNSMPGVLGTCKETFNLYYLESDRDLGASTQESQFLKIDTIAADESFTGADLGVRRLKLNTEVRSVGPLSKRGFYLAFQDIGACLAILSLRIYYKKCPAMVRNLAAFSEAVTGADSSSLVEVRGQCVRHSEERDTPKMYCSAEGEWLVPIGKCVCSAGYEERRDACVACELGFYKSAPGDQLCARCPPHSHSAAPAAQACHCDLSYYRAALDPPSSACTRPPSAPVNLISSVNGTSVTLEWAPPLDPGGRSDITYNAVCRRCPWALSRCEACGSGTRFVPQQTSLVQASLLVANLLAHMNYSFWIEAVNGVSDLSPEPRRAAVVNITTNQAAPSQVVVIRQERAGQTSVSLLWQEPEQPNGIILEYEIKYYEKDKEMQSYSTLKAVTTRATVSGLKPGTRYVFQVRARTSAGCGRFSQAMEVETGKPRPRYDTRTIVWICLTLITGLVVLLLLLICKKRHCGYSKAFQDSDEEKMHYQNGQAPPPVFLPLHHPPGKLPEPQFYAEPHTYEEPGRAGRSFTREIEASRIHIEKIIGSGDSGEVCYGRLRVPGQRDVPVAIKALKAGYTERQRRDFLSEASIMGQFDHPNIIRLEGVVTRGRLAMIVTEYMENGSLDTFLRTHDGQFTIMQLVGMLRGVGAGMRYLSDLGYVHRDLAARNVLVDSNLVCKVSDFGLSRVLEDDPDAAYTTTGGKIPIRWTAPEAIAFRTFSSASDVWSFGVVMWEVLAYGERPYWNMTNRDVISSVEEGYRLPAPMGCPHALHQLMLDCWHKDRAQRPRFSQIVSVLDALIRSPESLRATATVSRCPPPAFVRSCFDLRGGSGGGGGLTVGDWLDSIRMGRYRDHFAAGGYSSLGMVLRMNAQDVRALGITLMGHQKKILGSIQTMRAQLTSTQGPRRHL
Compound,residual activity [1] [%],residual activity [2] [%],residual activity [3] [%],residual activity [4] [%],residual activity [5] [%],residual activity [6] [%],residual activity [7] [%],residual activity [8] [%],residual activity [9] [%],residual activity [10] [%],inhibition [11] [%],residual activity [12] [%],residual activity [13] [%],residual activity [14] [%],residual activity [15] [%],inhibition [16] [%],inhibition [17] [%],residual activity [18] [%],residual activity [19] [%],residual activity [20] [%],further results
Cc1c[nH]c2nccc(Oc3c(F)cc(Nc4cc(Cl)nc(N)n4)cc3F)c12 [BAY-549],87,100,74,87,100,100,79,100,85,100,10.4,100,100,81,100,64.6,9.29,98,90,83,residual activity [21]: 100%; residual activity [22]: 65%; residual activity [23]: 82%; residual activity [24]: 94%; residual activity [25]: 91%; residual activity [26]: 95%; inhibition [27]: 4.87%; inhibition [28]: 7.96%; residual activity [29]: 70%; residual activity [30]: 69%; residual activity [31]: 80%; residual activity [32]: 100%; residual activity [33]: 100%; residual activity [34]: 99%; residual activity [35]: 95%; inhibition [36]: -7.18%; residual activity [37]: 100%; residual activity [38]: 100%
Cn1cc(Cl)c2c(Oc3c(F)cc(Nc4cc(Cl)nc(N)n4)cc3F)ccnc21 [BAY-4900],100,100,80,79,100,75,100,96,89,100,17.3,100,100,99,100,54.4,-1.63,81,100,77,residual activity [21]: 100%; residual activity [22]: 85%; residual activity [23]: 83%; residual activity [24]: 90%; residual activity [25]: 88%; residual activity [26]: 95%; inhibition [27]: 1.6%; inhibition [28]: -5.39%; residual activity [29]: 100%; residual activity [30]: 86%; residual activity [31]: 84%; residual activity [32]: 100%; residual activity [33]: 100%; residual activity [34]: 100%; residual activity [35]: 100%; inhibition [36]: -5.31%; residual activity [37]: 100%; residual activity [38]: 100%
